Legend:
Carbonic anhydrase 13 = Carbonic anhydrase 13 (Mus musculus, UniProt Q9D6N1)
Description: Inhibition of mouse CA13 by stopped-flow CO2 hydration method

Carbonic anhydrase 3 = Carbonic anhydrase 3 (Homo sapiens, UniProt P07451)
Description: Inhibition of human cloned CA3 by stopped-flow CO2 hydration method

Carbonic anhydrase 1 = Carbonic anhydrase 1 (Homo sapiens, UniProt P00915)
Description: Inhibition of human cloned CA1 by stopped-flow CO2 hydration method

[1] = biological target: Carbonic anhydrase 5A, mitochondrial (Homo sapiens, UniProt P35218)
[2] = biological target: Carbonic anhydrase 5B, mitochondrial (Homo sapiens, UniProt Q9Y2D0)
Carbonic anhydrase 9 = Carbonic anhydrase 9 (Homo sapiens, UniProt Q16790)
Description: Inhibition of human cloned CA9 catalytic domain by stopped-flow CO2 hydration method

Carbonic anhydrase 12 = Carbonic anhydrase 12 (Homo sapiens, UniProt O43570)
Description: Inhibition of human cloned CA12 catalytic domain by stopped-flow CO2 hydration method

Carbonic anhydrase 14 = Carbonic anhydrase 14 (Homo sapiens, UniProt Q9ULX7)
Carbonic anhydrase 4 = Carbonic anhydrase 4 (Homo sapiens, UniProt P22748)
Carbonic anhydrase 6 = Carbonic anhydrase 6 (Homo sapiens, UniProt P23280)
Description: Inhibition of human cloned CA6 by stopped-flow CO2 hydration method

Carbonic anhydrase 7 = Carbonic anhydrase 7 (Homo sapiens, UniProt P43166); assay: Inhibition of human cloned CA7 by stopped-flow CO2 hydration method
Chain of Carbonic anhydrase 7 (P43166 whole entry): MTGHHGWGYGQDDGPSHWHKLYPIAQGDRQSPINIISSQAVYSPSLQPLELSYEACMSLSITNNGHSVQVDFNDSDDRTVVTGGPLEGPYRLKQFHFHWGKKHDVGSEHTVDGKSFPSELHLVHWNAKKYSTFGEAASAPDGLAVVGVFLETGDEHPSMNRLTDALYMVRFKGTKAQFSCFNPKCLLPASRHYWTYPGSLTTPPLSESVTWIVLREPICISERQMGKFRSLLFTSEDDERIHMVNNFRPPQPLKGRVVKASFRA

Chain of Carbonic anhydrase 12 (O43570 whole entry): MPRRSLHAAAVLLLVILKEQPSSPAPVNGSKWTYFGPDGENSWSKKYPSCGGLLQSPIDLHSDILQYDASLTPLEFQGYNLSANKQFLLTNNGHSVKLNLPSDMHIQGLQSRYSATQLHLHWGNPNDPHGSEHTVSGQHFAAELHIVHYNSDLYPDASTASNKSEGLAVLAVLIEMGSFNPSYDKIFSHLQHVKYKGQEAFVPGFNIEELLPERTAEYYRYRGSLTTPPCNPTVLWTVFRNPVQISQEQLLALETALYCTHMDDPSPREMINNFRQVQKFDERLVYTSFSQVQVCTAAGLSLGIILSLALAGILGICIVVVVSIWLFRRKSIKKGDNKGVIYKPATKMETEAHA
Chain of Carbonic anhydrase 5B, mitochondrial (Q9Y2D0 whole entry): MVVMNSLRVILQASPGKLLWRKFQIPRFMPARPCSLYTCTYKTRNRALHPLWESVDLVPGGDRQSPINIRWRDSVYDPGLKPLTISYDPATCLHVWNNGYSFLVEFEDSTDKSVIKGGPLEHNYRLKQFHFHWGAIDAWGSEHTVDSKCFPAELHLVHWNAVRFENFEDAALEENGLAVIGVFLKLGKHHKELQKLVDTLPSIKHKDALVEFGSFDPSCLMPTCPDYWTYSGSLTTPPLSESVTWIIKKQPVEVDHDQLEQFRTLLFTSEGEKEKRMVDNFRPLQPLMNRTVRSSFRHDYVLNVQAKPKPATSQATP
Chain of Carbonic anhydrase 13 (Q9D6N1 whole entry): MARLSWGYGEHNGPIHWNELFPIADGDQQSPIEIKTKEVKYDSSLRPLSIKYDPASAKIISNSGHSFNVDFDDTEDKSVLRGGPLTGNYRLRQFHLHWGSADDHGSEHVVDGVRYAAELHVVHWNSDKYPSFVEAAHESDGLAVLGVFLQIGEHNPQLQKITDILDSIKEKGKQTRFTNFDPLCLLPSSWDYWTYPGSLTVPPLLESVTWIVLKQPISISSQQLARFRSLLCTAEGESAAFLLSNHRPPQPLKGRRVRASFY
Chain of Carbonic anhydrase 1 (P00915 whole entry): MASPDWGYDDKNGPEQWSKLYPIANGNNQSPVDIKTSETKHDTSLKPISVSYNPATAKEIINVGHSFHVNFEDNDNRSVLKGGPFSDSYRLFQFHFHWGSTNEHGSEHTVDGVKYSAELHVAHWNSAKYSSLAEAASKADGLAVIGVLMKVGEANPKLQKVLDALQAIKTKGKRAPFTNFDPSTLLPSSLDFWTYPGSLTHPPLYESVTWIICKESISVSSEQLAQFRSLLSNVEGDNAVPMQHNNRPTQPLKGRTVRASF
Chain of Carbonic anhydrase 4 (P22748 whole entry): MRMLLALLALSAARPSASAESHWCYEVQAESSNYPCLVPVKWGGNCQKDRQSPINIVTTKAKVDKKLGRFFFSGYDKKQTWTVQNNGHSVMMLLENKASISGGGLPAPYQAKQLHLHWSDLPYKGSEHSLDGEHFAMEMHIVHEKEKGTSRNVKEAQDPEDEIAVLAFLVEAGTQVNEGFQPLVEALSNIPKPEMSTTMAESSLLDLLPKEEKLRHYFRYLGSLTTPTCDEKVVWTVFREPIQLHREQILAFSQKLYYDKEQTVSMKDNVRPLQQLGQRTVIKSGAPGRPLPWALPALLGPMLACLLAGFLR
Chain of Carbonic anhydrase 3 (P07451 whole entry): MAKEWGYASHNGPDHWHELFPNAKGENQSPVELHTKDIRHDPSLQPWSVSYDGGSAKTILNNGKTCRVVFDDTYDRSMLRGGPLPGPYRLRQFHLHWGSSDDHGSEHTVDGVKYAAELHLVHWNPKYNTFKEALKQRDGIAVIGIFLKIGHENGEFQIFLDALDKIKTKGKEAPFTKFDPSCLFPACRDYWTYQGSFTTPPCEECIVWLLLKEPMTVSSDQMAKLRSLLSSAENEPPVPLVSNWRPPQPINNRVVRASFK
Chain of Carbonic anhydrase 14 (Q9ULX7 whole entry): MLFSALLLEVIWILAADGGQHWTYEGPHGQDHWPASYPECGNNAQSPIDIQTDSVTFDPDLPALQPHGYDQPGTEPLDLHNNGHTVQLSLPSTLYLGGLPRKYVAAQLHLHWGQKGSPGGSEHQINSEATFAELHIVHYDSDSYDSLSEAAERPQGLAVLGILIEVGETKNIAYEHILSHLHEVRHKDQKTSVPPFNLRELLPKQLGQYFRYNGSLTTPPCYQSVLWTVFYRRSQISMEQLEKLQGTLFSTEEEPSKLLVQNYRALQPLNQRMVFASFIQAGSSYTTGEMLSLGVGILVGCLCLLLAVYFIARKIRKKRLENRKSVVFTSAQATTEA
Chain of Carbonic anhydrase 6 (P23280 whole entry): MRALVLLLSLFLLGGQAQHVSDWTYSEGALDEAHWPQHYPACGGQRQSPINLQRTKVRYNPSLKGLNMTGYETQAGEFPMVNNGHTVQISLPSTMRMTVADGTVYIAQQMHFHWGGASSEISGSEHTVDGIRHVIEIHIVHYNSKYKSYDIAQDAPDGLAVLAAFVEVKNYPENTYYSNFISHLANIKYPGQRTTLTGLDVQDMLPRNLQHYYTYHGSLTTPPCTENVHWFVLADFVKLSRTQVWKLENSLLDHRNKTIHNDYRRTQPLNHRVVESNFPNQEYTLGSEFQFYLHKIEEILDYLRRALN
Chain of Carbonic anhydrase 5A, mitochondrial (P35218 whole entry): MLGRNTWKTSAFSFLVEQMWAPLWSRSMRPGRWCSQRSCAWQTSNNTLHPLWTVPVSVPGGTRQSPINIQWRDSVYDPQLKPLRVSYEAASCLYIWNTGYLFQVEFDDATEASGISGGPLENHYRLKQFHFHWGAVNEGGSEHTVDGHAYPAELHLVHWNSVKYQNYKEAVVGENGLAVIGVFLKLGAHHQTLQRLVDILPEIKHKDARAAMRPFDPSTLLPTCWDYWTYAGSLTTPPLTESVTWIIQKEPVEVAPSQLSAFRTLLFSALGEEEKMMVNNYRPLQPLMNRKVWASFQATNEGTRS

| SMILES | Ki (Carbonic anhydrase 13) [nM] | Ki (Carbonic anhydrase 3) [nM] | Ki (Carbonic anhydrase 1) [nM] | Ki [1] [nM] | Ki [2] [nM] | Ki (Carbonic anhydrase 9) [nM] | Ki (Carbonic anhydrase 12) [nM] | Ki (Carbonic anhydrase 14) [nM] | Ki (Carbonic anhydrase 4) [nM] | Ki (Carbonic anhydrase 6) [nM] | Ki (Carbonic anhydrase 7) [nM] |
| --- | --- | --- | --- | --- | --- | --- | --- | --- | --- | --- | --- |
| NS(=O)(=O)Oc1ccc2c(c1)S(=O)(=O)C(CC1CCCCCC1)=C2 | 66 | 740000 | 3600 | 682 | 18 | 18 | 13 | 13 | 842 | 654 |  |
| NS(=O)(=O)Oc1ccc2c3c(c(=O)oc2c1)CCCCC3 [IROSUSTAT] | 1050 | 700000 | 3450 | 765 | 720 | 34 | 12 | 755 | 24 | 653 | 23 |
